Experimental data taken from paper PMC6277767, “Broad and Region-Specific Impacts of the Synthetic Cannabinoid CP 55,940 in Adolescent and Adult Female Mouse Brains” (Frontiers in Molecular Neuroscience, 2018).

Tested on: CD1 female mouse brain lipidome
Assay: Brain-region lipid levels (HPLC/MS/MS lipidomics) 2 h after single i.p. 3 mg/kg CP 55,940 vs vehicle
Format: in vivo
Procedure: The Bloomington Institutional Animal Care and Use Committee of Indiana University reviewed and approved the animal procedures. Female mice from the CD1 strain were utilized to match our study examining THC’s effects on the brain lipidome ([Leishman et al., 2018]). Mice were given a single i.p. injection of either 3 mg/kg CP or 1:1:18 cremophor:ethanol:saline vehicle (please refer to the section “3 mg/kg CP Is Relevant for Synthetic Cannabinoid Abuse and Has Stronger Effects on the Female Mouse Brain Lipidome During Adolescence” for a justification of dose and use of female mice). Three different age groups were given injections: PND 35 and PND 50 adolescents, and adult mice (PND 113). At least eight mice in each age group received CP and at least eight received vehicle. Matching the THC study time course ([Leishman et al., 2018]), mice were sacrificed via rapid decapitation 2 h after injection. Brains were immediately removed and flash-frozen in liquid nitrogen, and then stored at -80°C until dissections were performed. Brains were dissected on an ice-cold dissection plate into the following regions: STR, HIPP, CER, THAL, CTX, HYP, MID, and STEM. These abbreviations for these brain areas will be used exclusively when discussing the results generated by these specific dissections. Each dissected area was immediately placed in liquid nitrogen and then stored at -80°C until used for lipid extraction.
Tissue extracts were performed as previously described ([Bradshaw et al., 2006]; [Stuart et al., 2013]; [Raboune et al., 2014]; [Leishman et al., 2016a],[b], [2017], [2018]). First, samples were shock frozen in liquid nitrogen, weighed, and transferred to a centrifuge tube. The mass of the largest sample was multiplied by 50 to determine how many milliliters of HPLC-grade methanol (Fisher, Fair Lawn, NJ, United States) to add. Then, samples were spiked with 500 pmol deuterium-labeled NAGly (d8NAGly; Cayman Chemical, Ann Arbor, MI, United States). Samples were placed on ice in darkness for 2 h then individually homogenized and centrifuged at 19,000 × g for 20 min at 20°C. Supernatants were diluted with HPLC water (purified in house) to make a solution of 75% water, 25% supernatant. Lipids were partially purified on C18 solid phase extraction columns (Agilent, Palo Alto, CA, United States). A series of four elutions with 1.5 mL of 60%, 75%, 85%, and 100% methanol were collected ([Stuart et al., 2013]; [Leishman et al., 2016a],[b], [2018]).
As previously described ([Bradshaw et al., 2006]; [Tan et al., 2006]; [Smoum et al., 2010]; [Stuart et al., 2013]; [Tortoriello et al., 2013]; [Raboune et al., 2014]; [Leishman et al., 2016a],[b], [2017], [2018]), samples were analyzed using an Applied Biosystems API 3000 triple quadrupole mass spectrometer with electrospray ionization (Foster City, CA, United States). Using an Agilent XDB-C18 reversed phase analytical column and optimized mobile phase gradients, 20 μL from each elution were chromatographed. Two Shimadzu 10ADvp pumps (Columbia, MD, United States) provided the pressure for gradient elution. Mobile phase A: 20% methanol, 80% water (v/v) and 1 mM ammonium acetate (Sigma, St. Louis, MO, United States). Mobile phase B: 100% methanol, 1 mM ammonium acetate. Every method run began with 0% mobile phase B, reached 100% mobile phase B flowing at 0.2 mL/min, and gradually returned to 0% mobile phase B.
This screening library will be referred to as the lipidome when discussing data from this study. HPLC/MS/MS data were analyzed using Analyst software (Applied Biosystems) ([Bradshaw et al., 2006]; [Tan et al., 2006]; [Stuart et al., 2013]; [Tortoriello et al., 2013]; [Raboune et al., 2014]; [Leishman et al., 2016a],[b], [2017], [2018]). Chromatograms (Supplementary Figure 3) were generated by determining the retention time of analytes from the analytical column with a [M-1] or [M+1] parent peak and a fragmentation peak corresponding to the programmed values. […]

[1] = striatum, adult, 3 mg/kg CP 55,940, one-way ANOVA p .007
[2] = striatum, adult, 3 mg/kg CP 55,940, one-way ANOVA p .015
[3] = striatum, adult, 3 mg/kg CP 55,940, one-way ANOVA p .017
[4] = striatum, adult, 3 mg/kg CP 55,940, one-way ANOVA p .019
[5] = striatum, adult, 3 mg/kg CP 55,940, one-way ANOVA p .043
[6] = striatum, adult, 3 mg/kg CP 55,940, one-way ANOVA p .071
[7] = striatum, adult, 3 mg/kg CP 55,940, one-way ANOVA p .075
[8] = striatum, PND 35, 3mg/kg CP 55,940
[9] = thalamus, PND 50, 3 mg/kg CP 55,940

## CCCCCCC(C)(C)c1ccc([C@@H]2C[C@H](O)CC[C@H]2CCCO)c(O)c1 [CP 55,940]
[1]
  N-docosahexaenoyl ethanolamine, Direction (relative to Veh): ↓
  N-docosahexaenoyl ethanolamine, Magnitude (x Veh level): 0.75 x Veh level
[2]
  N-linoleoyl ethanolamine, Direction (relative to Veh): ↓
  N-linoleoyl ethanolamine, Magnitude (x Veh level): 0.68 x Veh level
[3]
  N-arachidonoyl ethanolamine, Direction (relative to Veh): ↓
  N-arachidonoyl ethanolamine, Magnitude (x Veh level): 0.66 x Veh level
[4]
  Arachidonic acid, Direction (relative to Veh): ↓
  Arachidonic acid, Magnitude (x Veh level): 0.87 x Veh level
[5]
  N-oleoyl ethanolamine, Direction (relative to Veh): ↓
  N-oleoyl ethanolamine, Magnitude (x Veh level): 0.65 x Veh level
  N-oleoyl leucine Direction (relative to Veh): ↑
  N-oleoyl leucine Magnitude (x Veh level): 1.20 x Veh level
[6]
  2-arachidonoyl glycerol, Direction (relative to Veh): ↓
  2-arachidonoyl glycerol, Magnitude (x Veh level): 0.78 x Veh level
[7]
  N-palmitoyl serine, Direction (relative to Veh): ↓
  N-palmitoyl serine, Magnitude (x Veh level): 0.79 x Veh level
[8]
  2-arachidonoyl glycerol: Direction (relative to Veh): ↓
  2-arachidonoyl glycerol: Magnitude (x Veh level): 0.70 x Veh level
  2-linoleoyl glycerol: Direction (relative to Veh): ↓
  2-linoleoyl glycerol: Magnitude (x Veh level): 0.57 x Veh level
  2-oleoyl glycerol: Direction (relative to Veh): ↓
  2-oleoyl glycerol: Magnitude (x Veh level): 0.86 x Veh level
  N-arachidonoyl GABA: Direction (relative to Veh): ↓
  N-arachidonoyl GABA: Magnitude (x Veh level): 0.66 x Veh level
  N-arachidonoyl alanine: Direction (relative to Veh): ↓
  N-arachidonoyl alanine: Magnitude (x Veh level): 0.77 x Veh level
  N-arachidonoyl glycine: Direction (relative to Veh): ↓
  N-arachidonoyl glycine: Magnitude (x Veh level): 0.87 x Veh level
  N-arachidonoyl phenylalanine: Direction (relative to Veh): ↓
  N-arachidonoyl phenylalanine: Magnitude (x Veh level): 0.83 x Veh level
  N-arachidonoyl serine: Direction (relative to Veh): ↓
  N-arachidonoyl serine: Magnitude (x Veh level): 0.64 x Veh level
  N-arachidonoyl taurine: Direction (relative to Veh): ↓
  N-arachidonoyl taurine: Magnitude (x Veh level): 0.91 x Veh level
  N-arachidonoyl tyrosine: Direction (relative to Veh): ↓
  N-arachidonoyl tyrosine: Magnitude (x Veh level): 0.77 x Veh level
  N-docosahexaenoyl GABA: Direction (relative to Veh): ↓
  N-docosahexaenoyl GABA: Magnitude (x Veh level): 0.68 x Veh level
  N-docosahexaenoyl alanine: Direction (relative to Veh): ↓
  N-docosahexaenoyl alanine: Magnitude (x Veh level): 0.72 x Veh level
  N-docosahexaenoyl ethanolamine: Direction (relative to Veh): ↓
  N-docosahexaenoyl ethanolamine: Magnitude (x Veh level): 0.74 x Veh level
  N-docosahexaenoyl leucine: Direction (relative to Veh): ↑
  N-docosahexaenoyl leucine: Magnitude (x Veh level): 1.46 x Veh level
  N-docosahexaenoyl serine: Direction (relative to Veh): ↓
  N-docosahexaenoyl serine: Magnitude (x Veh level): 0.68 x Veh level
  N-oleoyl GABA: Direction (relative to Veh): ↓
  N-oleoyl GABA: Magnitude (x Veh level): 0.76 x Veh level
  N-oleoyl alanine: Direction (relative to Veh): ↓
  N-oleoyl alanine: Magnitude (x Veh level): 0.89 x Veh level
  N-oleoyl ethanolamine: Direction (relative to Veh): ↓
  N-oleoyl ethanolamine: Magnitude (x Veh level): 0.60 x Veh level
  N-oleoyl glycine: Direction (relative to Veh): ↓
  N-oleoyl glycine: Magnitude (x Veh level): 0.88 x Veh level
  N-palmitoyl ethanolamine: Direction (relative to Veh): ↓
  N-palmitoyl ethanolamine: Magnitude (x Veh level): 0.72 x Veh level
  N-palmitoyl leucine: Direction (relative to Veh): ↑
  N-palmitoyl leucine: Magnitude (x Veh level): 1.17 x Veh level
  N-palmitoyl valine: Direction (relative to Veh): ↑
  N-palmitoyl valine: Magnitude (x Veh level): 1.68 x Veh level
  N-stearoyl alanine: Direction (relative to Veh): ↓
  N-stearoyl alanine: Magnitude (x Veh level): 0.90 x Veh level
  N-stearoyl leucine: Direction (relative to Veh): ↓
  N-stearoyl leucine: Magnitude (x Veh level): 0.81 x Veh level
  N-stearoyl serine: Direction (relative to Veh): ↓
  N-stearoyl serine: Magnitude (x Veh level): 0.86 x Veh level
  N-stearoyl valine: Direction (relative to Veh): ↑
  N-stearoyl valine: Magnitude (x Veh level): 1.43 x Veh level
  PGE2: Direction (relative to Veh): ↑
  PGE2: Magnitude (x Veh level): 1.25 x Veh level
  PGF2α: Direction (relative to Veh): ↑
  PGF2α: Magnitude (x Veh level): 1.30 x Veh level
[9]
  2-arachidonoyl glycerol: Direction (relative to Veh): ↓
  2-arachidonoyl glycerol: Magnitude (x Veh level): 0.84 x Veh level
  2-linoleoyl glycerol: Direction (relative to Veh): ↓
  2-linoleoyl glycerol: Magnitude (x Veh level): 0.68 x Veh level
  2-oleoyl glycerol: Direction (relative to Veh): ↓
  2-oleoyl glycerol: Magnitude (x Veh level): 0.78 x Veh level
  6-ketoPGF1α: Direction (relative to Veh): ↑
  6-ketoPGF1α: Magnitude (x Veh level): 1.52 x Veh level
  Arachidonic acid: Direction (relative to Veh): ↓
  Arachidonic acid: Magnitude (x Veh level): 0.77 x Veh level
  Linoleic acid: Direction (relative to Veh): ↓
  Linoleic acid: Magnitude (x Veh level): 0.73 x Veh level
  N-arachidonoyl GABA: Direction (relative to Veh): ↓
  N-arachidonoyl GABA: Magnitude (x Veh level): 0.68 x Veh level
  N-arachidonoyl ethanolamine: Direction (relative to Veh): ↓
  N-arachidonoyl ethanolamine: Magnitude (x Veh level): 0.85 x Veh level
  N-arachidonoyl glycine: Direction (relative to Veh): ↓
  N-arachidonoyl glycine: Magnitude (x Veh level): 0.63 x Veh level
  N-arachidonoyl phenylalanine: Direction (relative to Veh): ↓
  N-arachidonoyl phenylalanine: Magnitude (x Veh level): 0.51 x Veh level
  N-arachidonoyl taurine: Direction (relative to Veh): ↓
  N-arachidonoyl taurine: Magnitude (x Veh level): 0.88 x Veh level
  N-arachidonoyl tyrosine: Direction (relative to Veh): ↓
  N-arachidonoyl tyrosine: Magnitude (x Veh level): 0.78 x Veh level
  N-docosahexaenoyl GABA: Direction (relative to Veh): ↓
  N-docosahexaenoyl GABA: Magnitude (x Veh level): 0.70 x Veh level
  N-linoleoyl GABA: Direction (relative to Veh): ↓
  N-linoleoyl GABA: Magnitude (x Veh level): 0.57 x Veh level
  N-palmitoyl leucine: Direction (relative to Veh): ↑
  N-palmitoyl leucine: Magnitude (x Veh level): 1.27 x Veh level
